Results as given in ChEMBL document CHEMBL6182881, “Optimized ebselen derivatives as novel potent Escherichia coli β-glucuronidase covalent allosteric inhibitors” (Eur J Med Chem, 2025).
Calls of active or inactive are those of the source. No cut-off for these calls is given here.

Legend:
Escherichia coli [1] = experiment: Covalent allosteric inhibition of recombinant Escherichia coli beta-glucuronidase using PNPG as substrate at 10 uM incubated for 30 mins by absorbance based microplate reader assay relative to control
[2] = Covalent allosteric inhibition of recombinant Escherichia coli beta-glucuronidase using PNPG as substrate incubated for 30 mins by absorbance based microplate reader assay
[3] = Binding affinity to Escherichia coli beta-glucuronidase assessed as inhibition constant
[4] = Cytotoxicity against human HCT-116 cells assessed as cell viability at 5 uM incubated for 24 hrs by CCK-8 assay relative to control; assay type: toxicity, cell-based; conditions: read-out: Activity
Escherichia coli [5] = experiment: Covalent binding affinity to recombinant Escherichia coli beta-glucuronidase at Cys443 residue by LC-MS/MS analysis
Escherichia coli [6] = experiment: Covalent binding affinity to recombinant Escherichia coli beta-glucuronidase at Cys197 residue by LC-MS/MS analysis
Escherichia coli [7] = experiment: Potency index, ratio of IC50 for amoxapine to test compound IC50 for covalent allosteric inhibition of recombinant Escherichia coli beta-glucuronidase using PNPG as substrate incubated for 30 mins by absorbance based microplate reader assay
Escherichia coli [8] = experiment: Covalent reversible binding affinity to recombinant Escherichia coli beta-glucuronidase using PNPG as substrate at 10 times IC50 pre-incubated for 30 mins followed by substrate addition by jump dilution assay
[9] = Covalent reversible binding affinity to recombinant Escherichia coli beta-glucuronidase assessed as apparent inhibition constant incubated for 30 mins; conditions: read-out: Ki(app)
Escherichia coli [10] = experiment: Covalent binding affinity to recombinant Escherichia coli beta-glucuronidase at Cys28 residue by LC-MS/MS analysis
Escherichia coli [11] = experiment: Covalent irreversible binding affinity to recombinant Escherichia coli beta-glucuronidase assessed as kinact/ki ratio incubated for 30 mins
Escherichia coli [12] = experiment: Covalent irreversible binding affinity to recombinant Escherichia coli beta-glucuronidase using PNPG as substrate at 10 times IC50 pre-incubated for 30 mins followed by substrate addition by jump dilution assay
[13] = Covalent irreversible binding affinity to recombinant Escherichia coli beta-glucuronidase assessed as inhibition constant incubated for 30 mins
Escherichia coli [14] = experiment: Covalent irreversible binding affinity to recombinant Escherichia coli beta-glucuronidase assessed as inactivation constant incubated for 30 mins
[15] = Covalent inhibition of Escherichia coli beta-glucurodinase

| SMILES | inhibition (Escherichia coli [1]) [%] | IC50 [2] [µM] | further results |
| --- | --- | --- | --- |
| O=c1c2ccccc2[se]n1-c1cc(C2CC2)[nH]n1 | < 90 | – | – |
| O=c1c2ccccc2[se]n1-c1ccc(C(F)(F)F)cc1 | < 90 | – | – |
| O=c1c2ccccc2[se]n1-c1cccnc1 | > 90 | – | – |
| Clc1ccc2c(c1)C(N1CCNCC1)=Nc1ccccc1O2 [AMOXAPINE] | 88.9 | 0.202 | Ki [3]: 0.18 µM |
| O=c1c2ccccc2[se]n1-c1nncs1 | < 90 | – | – |
| O=c1[nH][se]c2ccc(C(F)(F)F)cc12 | < 90 | – | – |
| O=c1[nH][se]c2ccccc12 | 72.1 | – | – |
| CC(C)(C)c1nnc(-n2[se]c3ccccc3c2=O)s1 | > 90 | – | – |
| CN(C)CCn1[se]c2ccccc2c1=O | > 90 | – | – |
| O=c1c2ccccc2[se]n1-c1ccc2[nH]ccc2c1 | > 90 | – | – |
| O=c1c2ccccc2[se]n1-c1ccc(F)cc1 | > 90 | – | – |
| O=C(O)c1ccc(-n2[se]c3ccccc3c2=O)cc1 | 96.8 | 0.0557 | viability at 24 h, 5 µM [4]: 86.2% |
| COC(=O)[C@H](CC(C)C)NC(=O)Cn1[se]c2ccccc2c1=O | > 90 | – | – |
| COc1ccc(-n2[se]c3ccccc3c2=O)cc1 | < 90 | – | – |
| O=c1c2ccccc2[se]n1-c1nnc(CC(F)(F)F)s1 | 6.11 | – | – |
| O=c1c2ccccc2[se]n1CC(F)(F)F | 94.7 | 0.0769 | – |
| Cc1ccc2c(=O)n(Cc3ccccc3)[se]c2c1 | < 90 | – | – |
| O=c1c2ccccc2[se]n1C1CCCCC1 | < 90 | – | – |
| O=c1c2ccccc2[se]n1-c1cn[nH]c1 | 98.3 | 0.0129 | viability at 24 h, 5 µM [4]: 71.5%; Activity (Escherichia coli [5]): Active; Activity (Escherichia coli [6]): Active; Ratio IC50 (Escherichia coli [7]): 15.6; Activity (Escherichia coli [8]): Active; Ki [9]: 0.0233 µM; Activity (Escherichia coli [10]): Active |
| Cc1nnc(-n2[se]c3ccccc3c2=O)s1 | < 90 | – | – |
| CCc1nnc(-n2[se]c3ccccc3c2=O)s1 | < 90 | – | – |
| Cc1cc(-n2[se]c3ccccc3c2=O)n[nH]1 | < 90 | – | – |
| O=c1c2ccccc2[se]n1-c1nnc(C2CCCC2)s1 | < 90 | – | – |
| CNC(=O)c1cc(Oc2ccc(-n3[se]c4ccccc4c3=O)cc2)ccn1 | 96.2 | 0.446 | viability at 24 h, 5 µM [4]: 86.2% |
| COC(=O)[C@H](Cc1ccc(O)cc1)n1[se]c2ccccc2c1=O | 96.9 | 0.0212 | viability at 24 h, 5 µM [4]: 86.2% |
| COC(=O)[C@H](CCCCNC(=O)OC(C)(C)C)n1[se]c2ccccc2c1=O | 94.4 | 0.0665 | viability at 24 h, 5 µM [4]: 86.2% |

| SMILES | inhibition (Escherichia coli [1]) [%] | IC50 [2] [µM] | further results |
| --- | --- | --- | --- |
| O=c1c2ccccc2[se]n1-c1nnc(C(F)(F)F)s1 | 93.7 | 0.188 | – |
| O=c1c2ccccc2[se]n1C12CC3CC(CC(C3)C1)C2 | < 90 | – | – |
| O=c1c2ccccc2[se]n1-c1ccccn1 | < 90 | – | – |
| CC(=O)OC[C@H]1O[C@@H](n2cnc3c(-n4[se]c5ccccc5c4=O)ncnc32)[C@H](OC(C)=O)[C@@H]1OC(C)=O | 98.8 | 0.0734 | viability at 24 h, 5 µM [4]: 81%; K (Escherichia coli [11]): 21300 M⁻¹ s⁻¹; Activity (Escherichia coli [12]): Active; Ki [13]: 5.95 µM; Activity (Escherichia coli [6]): Active; Kinact (Escherichia coli [14]): 7.6 min⁻¹ |
| C=CCCn1[se]c2ccccc2c1=O | < 90 | – | – |
| C=CCn1[se]c2ccccc2c1=O | > 90 | – | – |
| O=c1c2ccccc2[se]n1CCO | 96.2 | 0.0183 | viability at 24 h, 5 µM [4]: 86.2% |
| CC(C)c1nnc(-n2[se]c3ccccc3c2=O)s1 | < 90 | – | – |
| Oc1ccccc1-c1nc2cc(Cl)cc(Cl)c2[nH]1 | – | – | IC50 [15]: 4.48 µM |
| O=c1c2ccccc2[se]n1-c1nccs1 | < 90 | – | – |
| COC(=O)c1ccc2c(=O)n(-c3cccc4cccnc34)[se]c2c1 | 98.4 | 0.0634 | – |
| O=c1c2ccccc2[se]n1-c1ncc(C(F)(F)F)cc1Cl | < 90 | – | – |
| O=c1c2ccccc2[se]n1-c1ccc2[nH]ncc2c1 | < 90 | – | – |
| CCn1[se]c2ccccc2c1=O | < 90 | – | – |
| O=c1c2ccccc2[se]n1-c1ccccc1 | < 90 | – | – |
| Cn1cc(-n2[se]c3ccccc3c2=O)cn1 | 94.8 | 0.0421 | – |
| COC(=O)[C@H](Cc1c[nH]c2ccccc12)n1[se]c2ccccc2c1=O | > 90 | – | – |
| CCCc1nnc(-n2[se]c3ccccc3c2=O)s1 | < 90 | – | – |
| O=c1c2ccccc2[se]n1-c1nnc(C2CCC(F)(F)CC2)s1 | < 90 | – | – |
| CN1CCC(n2[se]c3ccccc3c2=O)CC1 | 93.9 | 0.0585 | – |
| COC(=O)[C@H](CSC)n1[se]c2ccccc2c1=O | > 90 | – | – |
| Cc1nnc(-n2[se]c3ccccc3c2=O)o1 | 97.5 | 0.116 | – |
| O=c1c2cc(Br)ccc2[se]n1-c1ccccc1 | < 90 | – | – |
| COC(=O)[C@H](CO)n1[se]c2ccccc2c1=O | 93.8 | 0.0482 | viability at 24 h, 5 µM [4]: 86.2% |
| O=c1c2ccccc2[se]n1-c1cnc2[nH]ncc2c1 | < 90 | – | – |
| O=c1c2ccccc2[se]n1-c1ccc(Cl)cc1 | 94.3 | 0.127 | – |
